Experimental data reported in patent US7144862B2, “Orally administered peptides to ameliorate atherosclerosis” (The Regents of the University of California, priority 2000, dated 2006).

What was measured:
[1] = target: T1, lecithin:cholesterol acyl transferase (LCAT) (Homo sapiens, UniProt P04180); assay: Assay of LCAT activity; type: biochemical; details: 20 μg/ml peptide, egg PC-cholesterol vesicles
T1 construct: LCAT was isolated from fresh normolipidemic plasma by the method of Albers et al; from tissue; host or cells: fresh normolipidemic plasma
T1 sequence (P04180 25-440): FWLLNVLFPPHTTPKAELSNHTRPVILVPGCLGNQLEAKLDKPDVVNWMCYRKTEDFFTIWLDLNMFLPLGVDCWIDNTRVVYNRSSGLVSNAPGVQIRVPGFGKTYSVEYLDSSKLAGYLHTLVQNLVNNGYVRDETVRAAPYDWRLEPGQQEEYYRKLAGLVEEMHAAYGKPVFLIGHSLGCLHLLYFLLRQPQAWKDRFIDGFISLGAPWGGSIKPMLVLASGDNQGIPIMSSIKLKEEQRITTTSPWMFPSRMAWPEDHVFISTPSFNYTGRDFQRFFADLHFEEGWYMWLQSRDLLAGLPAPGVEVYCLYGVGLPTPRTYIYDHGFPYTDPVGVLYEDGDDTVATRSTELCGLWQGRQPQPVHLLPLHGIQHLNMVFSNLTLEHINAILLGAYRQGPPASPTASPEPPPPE
Method: LCAT was isolated from fresh normolipidemic plasma by the method of Albers et al. (1986) Methods Enzymol. 129: 763–783, with some modifications. The density of the plasma was adjusted to 1.21 g/ml and it was centrifuged at 175,000 g for 24 h. The LCAT containing fraction was subjected to Affi-Gel Blue chromatography followed by DE-52 chromatography. LCAT was eluted from the DE-52 column using a 75 to 200 mM NaCl gradient in Tris buffer (10 mM, pH 7.6).
The substrate was prepared by sonicating egg PC/cholesterol (90:20 mol/mol) containing trace amounts of 7α-^3H cholesterol in a Branson 250 sonifier for 12 mins to obtain small unilamellar vesicles. The substrate (50 μl) was incubated with 5 μg of peptide or human apo A-I and 50 μl of BSA (40 μg/ml) for 1 h at 37° C. The total volume was brought up to 150 μl. After incubating for 1 h, 100 μl of LCAT was added and incubated for 1 h at 37° C. and the reaction was quenched by spotting 10 μl on a silica strip. Cholesterol and cholesteryl ester were separated by thin layer chromatography of the silica strip in hexane:chloroform (2:1 v/v) mixture. […] The positions of the standards were used to cut the strip into two and the two parts were counted in scintillation fluid in a Packard Tri Carb 4530. […] The activation of LCAT by the peptides is expressed as a percentage of the total activation by apo A-I .

[2] = Antibody detection by indirect ELISA after 16 weeks of daily injection; type: in vivo, mouse; details: plasma at conclusion of 16-week injection period
Method: To determine whether daily injections of peptides elicited any immune response in mice, indirect ELISA titration (Engvall (1980) Meth. Enzymol. 70:419–439) was carried out with plasma taken from mice at the time of organ collection (following sixteen weeks of daily injection). Plates were coated with the injected peptides or MoAI (10 μg/ml). Plates were incubated overnight. After thorough washing with borate buffered saline (pH 8.2) containing 0.05% Tween 20, and blocking with buffer (0.1% gelatin and 0.1% BSA in borate buffer) for 1 h, 200 μl of the diluted mouse plasma (1:100 dilution) samples were serially diluted 1:1 with borate-buffered saline. Biotinylated goat antibody to mouse IgG (0.1 μg/ml) was then added to the wells and the plates were treated with SA-HRP (Streptavidin-horse radish peroxidase) for an hour and developed with ABTS and peroxide as substrate. The plates were incubated overnight at room temperature after every addition of antigen/antibody and washed thoroughly with borate buffered saline (pH 8.2) containing 0.05% Tween 20, and blocked with buffer (0.1% gelatin and 0.1% BSA in borate buffer) for 1 h before the next addition.

[3] = tested on: human artery wall cell cocultures; assay: LDL-induced monocyte chemotactic activity with the homologous series of peptides (Example 3); type: cell-based; details: peptide at 100 μg/ml, LDL 250 μg protein/ml, 8 h
Method: Microtitre plates were treated with 0.1% gelatin at 37° C. overnight. HASMC were added at a confluent density of 1×10^5 cells/cm^2. […] HAEC were subsequently added at 2×10^5 cells/cm^2 and were allowed to grow, forming a complete monolayer of confluent HAEC in two days. In all experiments, HAEC and autologous HASMC (from the same donor) were used at passage levels of four to six. […] The cocultures were treated with native LDL(250 μg protein/ml) or presence of HDL (350 μg protein/ml) or peptides for 8 h.

[4] = Surface pressure measurements: monolayer exclusion pressure; type: physicochemical; details: EPC monolayer; reproducibility ± 1 dyn/cm
Method: An insoluble monolayer of egg phosphatidylcholine (EPC) was spread at the air-water interface in a Teflon dish at room temperature to give an initial surface pressure (πi) in the range of 5–45 dyn/cm. A solution of peptides in PBS containing 1.5M Gdn. HCl was carefully injected in to the subphase to give a final concentration of 50 μg/dL. The Gdn. HCl was diluted in the subphase to a final concentration of ≦1 mM to allow the peptides to renature. The subphase was stirred continuously and the increase in EPC monolayer surface pressure (Δπ) was recorded until a steady state value was obtained. The value of the initial surface pressure (πi) at which the peptides no longer penetrate the EYPC monolayer i.e. the exclusion pressure (πe), was calculated by extrapolating the πi vs Δπ linear regression fit to Δπ=0 dyn/cm.

[5] = mouse, in vivo
Method: The 5F peptide, MoAI, and human apo A-I were labeled with ^125I by the method of Bilheimer et al. (1972) Biochim. Biophys. Acta 260: 212–221. Mice were placed on a modified Thomas-Hartroft atherogenic diet (#TD88051; Teklad, Madison, Wis.) for four weeks at which time daily intraperitoneal injections of peptide or protein dissolved in 200 μl phosphate-buffered saline (PBS) were begun. Animals injected with MoAI or human apo A-I received 50 μg per animal; those injected with 5F received 20 μg. Animals were not fasted for the kinetic studies and blood samples were taken under xylazine:ketamine anesthesia from the retro-orbital sinus at 15, 30, and 45 minutes, and 1, 1.5, 2, 3, 4, 6, 8, 12, and 24 hours following injection. Each animal provided three blood samples at different time points (all retro-orbital and alternating eyes), and at least three samples were collected (from different animals) at each time point. Samples were collected into heparinized capillary tubes, then placed in microcentrifuge tubes; the plasma was separated by centrifugation. Duplicate 10 μl aliquots of each sample were taken for radioactivity determination, using gamma counting (Cobra; Packard Instruments, Downers Grove, Ill.) for 10 minutes per sample. Total plasma volume was calculated as 4.2% body weight. Each sample was expressed as percent of injected CPM in total plasma. Free ^125I was determined by trichloroacetic acid (TCA) precipitation (1 ml of 10% TCA per 10 μl plasma sample). Fitting to the kinetic model was done using all data points, rather than averages at each time point (PKAnalyst, MicroMath Scientific Software, Salt Lake City, Utah).
Treatment groups were compared by two-tailed t-tests or one way analysis of variance (where the data were normally distributed), or by one way analysis of variance on ranks (SigmaStat; SPSS Science, Chicago, Ill.). Kinetics of peptide or protein turnover were analyzed by fitting to a first order one-compartment kinetic model assuming non-equal input and output rates (PKAnalyst; MicroMath Scientific Software, Salt Lake City, Utah).

[6] = Survival, toxicity, body and liver weights after 16 weeks of injection
Method: Mice were acquired at six weeks of age, and randomized into groups of 20, except that a negative control group of 10 received no treatments and was given standard rodent chow. At eight weeks of age, the treatment groups were placed on a modified Thomas-Hartroft atherogenic diet (#TD88051; Teklad, Madison, Wis.), and injections were begun. […] Animals were injected intraperitoneally daily for 16 weeks, including weekends and holidays.
At the end of the study (week 16), at the last bleeding, the heart and the liver were excised. […] The livers were removed and weighed.

[7] = after 16 weeks, atherogenic diet, daily i.p., mean ± SEM

What does the source list for “Ac-DWLKAFYDKVFEKFKEFF-NH2 [Peptide 5F, Ac-D-W-L-K-A-F-Y-D-K-V-F-E-K-F-K-E-F-F-NH2]”?
LCAT activation relative to apo A-I (100%) [1]: 80 % of apo A-I; antibodies against the injected material [2]: No antibodies were detected; inhibition of LDL-induced monocyte chemotaxis [3]: significant and similar inhibition; Monolayer Exclusion Pressure(πc) [4]: 45 dyn/cm; T½ ([5]; C57BL/6J, ip): 6.22 h; Max. % in plasma [5]: 14.29%; Body Weight [6, 7]: 21.60 ± 0.28 g; Liver Weight [6, 7]: 1.61 ± 0.04 g; Liver: Body (percentage) [6, 7]: 7.46 ± 0.23%; mice died from unexplained causes ([6]; during the prolonged diet studies, groups of 20): one
